{
  "source": "patent US20250134855A1",
  "about": "“CO[…] AND METHODS OF USING SAME” (LYKOS THERAPEUTICS, INC., priority 2022, published 2025)",
  "assay": "Study MPKF: plasma pharmacokinetics of MDMA and MDA, single 120 mg MDMA·HCl, fasted/fed",
  "format": "in vivo, human",
  "details": "for Tmax: median",
  "from_the_text": "The MPKF was a Phase 1, open-label, randomized sequence, multi-dose, 2-period crossover food effect study in 16 healthy individuals. The MPKF study evaluated plasma concentrations of both MDMA and the active metabolite 3,4-methylenedioxyamphetamine (MDA). Summary PK Parameters of the preliminary data was based on interim analysis are presented in Table 12 Table 12 Table 12, and Table 13 Table 13 Table 13 for MDMA and MDA, respectively.\nParticipants were randomized to receive 1 of 2 conditions before the other: • Fasted Treatment: at least 10 hours of fasting followed by administration of MDMA HCl with 240 mL water. • Fed Treatment: at least 10 hours of fasting followed by a high-fat (approximately 50% of total caloric content of the meal) and high-calorie (approximately 800 to 1000 calories) meal was consumed within 30 minutes prior to IMP administration.\nParticipants remained at the clinical research unit (CRU) for each Dosing Session from the time of check-in on the night before dosing until discharge 48 hours after dosing for collection of serial blood samples for PK analysis and safety monitoring. IMP was administered on Day 1 following the treatment sequence to which the participant was randomized. An additional outpatient visit occurred 72 hours after dosing to collect a final PK sample, commensurate with the expected PK profiles of MDMA and MDA. Safety assessments were also performed at this visit.\nThe washout period between Dosing Sessions was at least 14 days. If a participant experienced emesis within 4 hours of administration, they were to be withdrawn from the study and replaced with a new participant. An End of Study Visit was performed 2 to 10 days after the completion of the final Dosing Session 72-hour follow-up. An informal interim analysis was planned to be conducted after at least 5 participants completed at least 1 Dosing Session to examine PK variability.\nThe API was a white crystalline powder of pharmaceutical quality, made according to current Good Manufacturing Practices (cGMP) for human use.\nParticipants: Sixteen healthy individuals were recruited for the study.\nIntervention: The study was conducted as a Phase 1, open-label, randomized sequence, multi-dose, 2-period crossover food effect study. Each participant received multiple doses of MDMA, and plasma concentrations of both MDMA and the active metabolite MDA were measured.\nSample Collection: Blood samples were collected at various time points up to 72 hours after dosing. The samples were analyzed using validated liquid chromatography-tandem mass spectrometry (LC-MS/MS) methods.\nData Analysis: The summary PK parameters were presented in Table 12 for MDMA and Table 13 for MDA. The data were analyzed using descriptive statistics, and the mean and standard deviation were calculated. The results were compared between the two periods and analyzed for food effects. Statistical analyses were performed using appropriate methods, such as analysis of variance (ANOVA) and paired t-tests. A p-value of less than 0.05 was considered statistically significant.",
  "key": {"[1]": {"details": "Fasted (N = 15), 120 mg MDMA·HCl, geometric mean"}, "[2]": {"details": "Fed (N = 14), 120 mg MDMA·HCl, geometric mean"}},
  "note": "Read-outs that look alike come from different tables or passages of the source.",
  "data": [
    {"smiles": "CC(N)Cc1ccc2c(c1)OCO2", "note": "(centres unmarked) [MDA, 3,4-methylenedioxyamphetamine]", "values": [
      {"measurement": "higher plasma PK values in intermediate relative to normal CYP2D6 metabolizers", "setting": "8 intermediate, 8 normal metabolizers", "result": "approximately 13%"},
      {"measurement": "Cmax, Geometric LSM", "setting": "Fasted", "result": 12.39, "unit": "ng/mL"},
      {"measurement": "CL/F", "setting": "[1]", "result": 302.8, "unit": "L/h"},
      {"measurement": "Cmax", "setting": "[1]", "result": 12, "unit": "ng/mL"},
      {"measurement": "Tlag", "setting": "[1]", "result": 0.6, "unit": "h"},
      {"measurement": "Tmax", "setting": "Fasted (N = 15), 120 mg MDMA·HCl", "result": 6, "unit": "h"},
      {"measurement": "Cmax, Geometric LSM", "setting": "Fed", "result": 11.92, "unit": "ng/mL"},
      {"measurement": "CL/F", "setting": "[2]", "result": 270.7, "unit": "L/h"},
      {"measurement": "Cmax", "setting": "[2]", "result": 12, "unit": "ng/mL"},
      {"measurement": "Tlag", "setting": "[2]", "result": 0.7, "unit": "h"},
      {"measurement": "Tmax", "setting": "Fed (N = 14), 120 mg MDMA·HCl", "result": 7, "unit": "h"},
      {"measurement": "Cmax", "setting": "both sexes, human, plasma, po, single 120 mg dose of MDMA·HCl, fasting healthy males and females, read-out: Cmax", "result": 13.3, "unit": "ng/mL"},
      {"measurement": "AUC0-72, Geometric Mean Ratio", "setting": "fed vs fasted", "result": 0.98},
      {"measurement": "AUC0-inf, Geometric Mean Ratio", "setting": "fed vs fasted", "result": 0.99},
      {"measurement": "AUC0-t, Geometric Mean Ratio", "setting": "fed vs fasted", "result": 0.90},
      {"measurement": "Cmax, Geometric Mean Ratio", "setting": "fed vs fasted", "result": 0.96},
      {"measurement": "effect of food on exposure", "setting": "high-fat meal vs fasting, single 120 mg MDMA·HCl", "result": "not affected by food"},
      {"measurement": "AUC0-inf of MDA relative to MDMA", "setting": "human, plasma, oral, 120 mg", "result": "less than 10%"},
      {"measurement": "peak plasma levels of MDA relative to MDMA", "setting": "human, plasma, oral, 120 mg", "result": "less than 10%"},
      {"measurement": "AUC(0-t)", "setting": "human, plasma, oral, 120 mg, Fasted, read-out: AUC0-72, Geometric LSM", "result": 312, "unit": "ng·h/mL"},
      {"measurement": "AUC(0-inf)", "setting": "human, plasma, oral, 120 mg, Fasted, read-out: AUC0-inf, Geometric LSM", "result": 331, "unit": "ng·h/mL"},
      {"measurement": "AUC(0-t)", "setting": "human, plasma, oral, 120 mg, Fasted, read-out: AUC0-t, Geometric LSM", "result": 282, "unit": "ng·h/mL"},
      {"measurement": "AUC(0-t)", "setting": "human, plasma, oral, 120 mg, Fed, read-out: AUC0-72, Geometric LSM", "result": 306, "unit": "ng·h/mL"},
      {"measurement": "AUC(0-inf)", "setting": "human, plasma, oral, 120 mg, Fed, read-out: AUC0-inf, Geometric LSM", "result": 328, "unit": "ng·h/mL"},
      {"measurement": "AUC(0-t)", "setting": "human, plasma, oral, 120 mg, Fed, read-out: AUC0-t, Geometric LSM", "result": 254, "unit": "ng·h/mL"},
      {"measurement": "Vd/F", "setting": "human, plasma, po, 120 mg, Fasted (N = 15), 120 mg MDMA·HCl, geometric mean", "result": 5520, "unit": "L"},
      {"measurement": "AUC(0-t)", "setting": "human, plasma, po, 120 mg, Fasted (N = 15), 120 mg MDMA·HCl, geometric mean, read-out: AUC0-72", "result": 313, "unit": "ng·h/mL"},
      {"measurement": "AUC(0-inf)", "setting": "human, plasma, po, 120 mg, Fasted (N = 15), 120 mg MDMA·HCl, geometric mean, read-out: AUC0-inf", "result": 330, "unit": "ng·h/mL"},
      {"measurement": "AUC(0-t)", "setting": "human, plasma, po, 120 mg, Fasted (N = 15), 120 mg MDMA·HCl, geometric mean, read-out: AUC0-t", "result": 282, "unit": "ng·h/mL"},
      {"measurement": "half-life", "setting": "human, plasma, po, 120 mg, Fasted (N = 15), 120 mg MDMA·HCl, geometric mean, read-out: T1/2 (converted)", "result": 12.6, "unit": "h"},
      {"measurement": "Vd/F", "setting": "human, plasma, po, 120 mg, Fed (N = 14), 120 mg MDMA·HCl, geometric mean", "result": 5000, "unit": "L"},
      {"measurement": "AUC(0-t)", "setting": "human, plasma, po, 120 mg, Fed (N = 14), 120 mg MDMA·HCl, geometric mean, read-out: AUC0-72", "result": 322, "unit": "ng·h/mL"},
      {"measurement": "AUC(0-inf)", "setting": "human, plasma, po, 120 mg, Fed (N = 14), 120 mg MDMA·HCl, geometric mean, read-out: AUC0-inf", "result": 369, "unit": "ng·h/mL"},
      {"measurement": "AUC(0-t)", "setting": "human, plasma, po, 120 mg, Fed (N = 14), 120 mg MDMA·HCl, geometric mean, read-out: AUC0-t", "result": 255, "unit": "ng·h/mL"},
      {"measurement": "half-life", "setting": "human, plasma, po, 120 mg, Fed (N = 14), 120 mg MDMA·HCl, geometric mean, read-out: T1/2 (converted)", "result": 12.8, "unit": "h"},
      {"measurement": "AUC(0-inf)", "setting": "human, plasma, po, 120 mg, single 120 mg dose of MDMA·HCl, fasting, read-out: AUC0-inf", "result": 374, "unit": "ng·h/mL"},
      {"measurement": "half-life", "setting": "human, plasma, po, 120 mg, single 120 mg dose of MDMA·HCl, fasting, read-out: t1/2 (converted)", "result": 12.8, "unit": "h"},
      {"measurement": "Tmax", "setting": "single 120 mg dose of MDMA·HCl, fasting", "result": 6, "unit": "h"}
    ]}
  ]
}
